Legend:
IP3R = settings: cited from earlier work
[1] = target: IP3R1 with R504 mutated to glutamine (Rattus norvegicus, UniProt P29994, R504Q); assay: Ca2+ release in cell line expressing only IP3R1 with R504 mutated to glutamine; assay type: cell-based
IP3R1 with R504 mutated to glutamine, sequence (P29994 whole entry R504Q): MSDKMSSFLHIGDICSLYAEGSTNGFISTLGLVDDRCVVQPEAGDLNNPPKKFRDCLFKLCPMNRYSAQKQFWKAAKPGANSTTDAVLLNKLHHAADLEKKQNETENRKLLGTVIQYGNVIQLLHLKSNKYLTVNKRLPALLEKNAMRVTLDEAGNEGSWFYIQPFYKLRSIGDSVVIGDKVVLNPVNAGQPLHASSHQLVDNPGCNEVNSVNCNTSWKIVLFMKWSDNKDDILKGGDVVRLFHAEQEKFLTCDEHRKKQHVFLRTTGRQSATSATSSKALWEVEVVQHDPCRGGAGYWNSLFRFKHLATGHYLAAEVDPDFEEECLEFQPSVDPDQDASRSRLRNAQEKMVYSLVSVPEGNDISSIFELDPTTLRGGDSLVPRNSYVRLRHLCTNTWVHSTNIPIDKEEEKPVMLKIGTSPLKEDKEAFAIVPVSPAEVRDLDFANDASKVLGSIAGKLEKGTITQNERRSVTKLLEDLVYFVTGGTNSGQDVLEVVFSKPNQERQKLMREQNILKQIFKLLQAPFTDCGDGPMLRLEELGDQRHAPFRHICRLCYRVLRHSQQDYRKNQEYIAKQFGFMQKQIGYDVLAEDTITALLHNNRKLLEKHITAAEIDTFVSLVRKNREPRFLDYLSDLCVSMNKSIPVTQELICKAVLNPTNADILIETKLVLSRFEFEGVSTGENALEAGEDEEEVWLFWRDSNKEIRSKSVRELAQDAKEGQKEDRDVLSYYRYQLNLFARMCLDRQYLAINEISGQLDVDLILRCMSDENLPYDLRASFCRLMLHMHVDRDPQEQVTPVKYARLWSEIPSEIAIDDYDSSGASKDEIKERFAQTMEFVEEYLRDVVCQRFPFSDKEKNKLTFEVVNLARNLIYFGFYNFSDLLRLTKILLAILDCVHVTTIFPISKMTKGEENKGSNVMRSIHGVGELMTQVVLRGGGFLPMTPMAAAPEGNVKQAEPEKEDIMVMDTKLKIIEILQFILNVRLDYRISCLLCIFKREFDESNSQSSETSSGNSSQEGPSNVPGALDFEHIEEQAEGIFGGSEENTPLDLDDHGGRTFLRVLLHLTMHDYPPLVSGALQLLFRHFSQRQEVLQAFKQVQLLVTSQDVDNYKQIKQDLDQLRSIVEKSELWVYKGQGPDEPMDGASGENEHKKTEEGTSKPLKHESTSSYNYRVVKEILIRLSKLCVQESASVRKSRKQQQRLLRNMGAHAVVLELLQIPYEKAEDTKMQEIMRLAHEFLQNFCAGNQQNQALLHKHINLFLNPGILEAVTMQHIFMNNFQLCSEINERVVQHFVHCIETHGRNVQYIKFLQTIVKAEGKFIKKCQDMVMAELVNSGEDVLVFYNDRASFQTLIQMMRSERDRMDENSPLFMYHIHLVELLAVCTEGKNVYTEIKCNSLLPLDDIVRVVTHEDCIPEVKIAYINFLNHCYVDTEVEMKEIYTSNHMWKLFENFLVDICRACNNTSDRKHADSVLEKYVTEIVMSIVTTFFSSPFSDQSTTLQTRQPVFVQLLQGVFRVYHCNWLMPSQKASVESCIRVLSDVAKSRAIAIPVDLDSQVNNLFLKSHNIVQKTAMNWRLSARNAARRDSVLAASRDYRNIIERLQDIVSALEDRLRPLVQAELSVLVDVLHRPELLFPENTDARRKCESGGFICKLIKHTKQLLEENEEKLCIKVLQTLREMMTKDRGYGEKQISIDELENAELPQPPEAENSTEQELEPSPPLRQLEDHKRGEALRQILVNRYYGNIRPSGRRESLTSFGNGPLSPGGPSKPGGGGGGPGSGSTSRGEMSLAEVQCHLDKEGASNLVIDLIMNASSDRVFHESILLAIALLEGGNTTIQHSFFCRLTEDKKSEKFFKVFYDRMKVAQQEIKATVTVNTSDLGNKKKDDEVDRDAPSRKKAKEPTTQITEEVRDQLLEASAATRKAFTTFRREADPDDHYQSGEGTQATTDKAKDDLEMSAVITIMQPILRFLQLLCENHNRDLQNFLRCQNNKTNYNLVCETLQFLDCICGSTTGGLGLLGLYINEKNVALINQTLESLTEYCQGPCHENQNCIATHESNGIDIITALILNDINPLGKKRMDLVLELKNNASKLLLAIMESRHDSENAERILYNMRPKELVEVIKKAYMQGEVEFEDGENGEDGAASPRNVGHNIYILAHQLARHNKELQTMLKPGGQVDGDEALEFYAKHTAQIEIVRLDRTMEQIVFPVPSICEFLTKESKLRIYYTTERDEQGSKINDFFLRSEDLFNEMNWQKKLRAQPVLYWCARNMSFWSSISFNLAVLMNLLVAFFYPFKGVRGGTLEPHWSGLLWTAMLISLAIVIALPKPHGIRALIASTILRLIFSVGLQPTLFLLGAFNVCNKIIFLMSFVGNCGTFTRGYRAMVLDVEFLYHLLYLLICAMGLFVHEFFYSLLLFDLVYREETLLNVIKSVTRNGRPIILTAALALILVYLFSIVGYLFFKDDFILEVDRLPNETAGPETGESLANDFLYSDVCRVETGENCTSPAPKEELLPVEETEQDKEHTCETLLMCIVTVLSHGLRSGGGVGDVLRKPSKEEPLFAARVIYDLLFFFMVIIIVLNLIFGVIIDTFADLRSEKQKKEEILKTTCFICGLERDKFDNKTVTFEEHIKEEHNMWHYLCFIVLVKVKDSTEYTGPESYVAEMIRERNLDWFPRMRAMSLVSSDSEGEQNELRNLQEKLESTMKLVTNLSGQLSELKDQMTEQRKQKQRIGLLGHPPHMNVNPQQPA

Row | potency relative to IP3 at the mutated receptor [1] | change of EC50 at mutant IP3R relative to IP3R1 ([1]; printed as EC50 reduced) [fold] | Compound | potency relative to IP3 (IP3R) | activity at IP3R (result in words) (IP3R)
1 | only equipotent with IP3 | 434 | Nc1ncnc2c1ncn2[C@@H]1O[C@H](CO)[C@@H](O[C@H]2O[C@H](CO)[C@@H](OP(=O)(O)O)[C@H](OP(=O)(O)O)[C@H]2O)[C@H]1OP(=O)(O)O [AdA, adenophostin A] | at least ten times more potent than IP3 | –
2 | – | – | O=P(O)(O)O[C@@H]1[C@@H](O)[C@H](OP(=O)(O)O)[C@H](O)[C@H](O)[C@H]1O [Ins(1,5)P2] | – | inactive

Reference: publication PMC2898634 (Chemical Communications (Cambridge, England), 2009)
